According to patent publication US11435345B2, “Detection and treatment of demyelinating diseases” (MATN SCIENTIFIC LIMITED, priority 2016, dated 2022):
“Also recorded” adds a separate entry of the source. No end group written: not given here.

Legend:
C57BL/6 mice [1] = test: Disease induction with antigen and adjuvant in combination with Pertussis toxin; format: in vivo, mouse; details: for grade of plaques compared to control animals / severity of muscle weakness compared between antigens: mice; for grade of plaques compared to control animals: mid brain section, antigen + adjuvant + pertussis, FIG. 8
Method: (§1) Male (n=16) and female (n=16) C57BL/6 mice, weighing between 16-18 g, were purchased from Royan institute (Tehran, Iran). MS induction study started when mice reached 6-8 weeks of age. Similar investigations were carried chick and guinea pig (data not shown). All procedures were performed aseptically and under supervision of Gandhi Hospital medical ethics committee (Tehran, Iran). Freund's complete adjuvant and Pertussis toxin purchased from Sigma-Aldrich (Dorset, UK).
At day 1 and day 2, 250 μg of antigen (oligopeptides of the invention) diluted in 150 μl of saline combined with 150 μl of adjuvant was injected intra-dermally into alcohol wiped back of each mouse. Following the injection of antigens, 400 ng Pertussis toxin diluted in 300 μl distilled water was injected intraperitoneally. Two control groups received either 150 μl distilled water in 150 μl of adjuvant or 400 ng Pertussis toxin diluted in 300 μl distilled water. The animals were kept in standard housing condition with appropriate temperature and humidity as well as adequate supplies of food and fresh water.
(§2) After scarifying mice by anaesthesia overdose at day 15 of injection, their brain was dissected out and fixed in 10% Formalin for histological analysis. The fixed samples were subsequently cut horizontally and processed to produce 5-micron thin paraffin sections, which then were stained with Haematoxylin and eosin (H&E), Glial fibrillary acidic protein (GFAP), CD-68 and Luxol fast blue (LFB). Various sections of the brain were then analyzed and imaged using a bright-field microscope (Optika B-383PL, Bergamo, Italy). Grade of plaque formation was defined as number of plaques measured in mid brain section as follow: […]
The effect of injected oligopeptide antigens of the invention on muscular function was tested by measuring animal fall time from inverted cage and ring. These tests follow the format of commonly used functional muscle evaluation tests in mice that use “wire hanging” behavioral tests wherein latency to fall after being suspended from a substrate is quantified to give a measure of muscular function.

C57BL/6 mice [2] = test: Disease induction with antigen and adjuvant without Pertussis toxin; format: in vivo, mouse; details: for grade of plaque formation: mid brain section, day 15, without Pertussis, FIG. 12
Method: as §1
C57BL/6 mice were injected with adjuvant and antigens (oligopeptides of the invention) at day 0 and 5. Control group received the injection of only adjuvant in distilled water.
as §2

chicks = test: MS induction in chicks with antigens combined with pertussis and adjuvant; format: in vivo, chick; details: 1 mg antigen per 70 g body weight
Method: As a preliminary examination of our proposed treatment method, we induced MS in chicks by injecting antigens P, F, E and A (corresponding to SEQ ID NOs: 20, 21, 22 and 23) combined with pertussis and adjuvant. The dosage was 1 mg antigen per 70 g body weight. The main reason we chose this animal was to be able to easily visualize the walking impairment as they are bipedal like humans (compared to quadrupedal rodents). Initial symptoms were seen 12 days after antigen injection.

[3] = test system: antibody that binds to the oligopeptide in serum samples; test: ELISA assay of serum antibody that binds to biotinylated oligopeptides immobilised on streptavidin plates; format: binding, human; details: pH 7.4, female subjects, FIG. 2
Excerpt: Six exemplary oligopeptides of the invention (each 17 amino-acids long, with biotinylated N-terminus) were used to prepare ELISA assays for studying antibody levels in patient samples. The oligopeptides were synthesised by K J Ross-Petersen ApS (Copenhagen, Denmark) and provided in lyophilized form. General serum diluent was purchased from Immunochemistry Technologies LLC (Minnesota, USA). Streptavidin coated 96-Well microplates were purchased from Eagle Biosciences (New Hampshire, USA) and the oligopeptides were applied to individual wells of the streptavidin plates as described below.
Sample preparation: Following obtaining informed consent, a 5 ml venous blood sample was withdrawn from each individual participating in this study. Samples were centrifuged for 10 minutes at 3000 RPM. Serum was then transferred into a clean plastic vial and the remainder was discarded. Serum was then diluted in general serum diluent (200 μl/mL), labelled accordingly and stored at −20° C. […]
ELISA protocol: Typical ELISA protocol was followed for quantifying antibodies present in serum. […] The plate was shaken for 5 seconds at 250 RPM and absorbance was measured using plate reader at wavelength 450 nm and 630 nm filter. Elisys Uno fully automated ELISA analyser (HUMAN company, Wiesbaden, Germany) was used to read the measurements. […]

[4] = test system: multiple sclerosis patients; details: MS patients; cited from earlier work
[5] = fall from inverted cage and ring

Row | Substance | grade of plaques compared to control animals (C57BL/6 mice [1]) | balance compared to controls (chicks) | time to initial symptoms after antigen injection (chicks) [days] | weight compared to controls (chicks) | other results
1 | RVPGCAHHADSLYTYPV (Oligopeptide motif) [antigen F] | significantly higher | lack of balance | 12 | Significant weight loss | muscle weakness in male mice (C57BL/6 mice [1]; male mice, fall from inverted cage and ring): most pronounced muscle weakness; grade of plaque formation (C57BL/6 mice [2]; male mice): 7 (18-21); induction of MS in males (C57BL/6 mice [2]; males): major inducer of MS in males
2 | RHSDEHHHDDSLPHPQQ (Oligopeptide motif) [antigen E] | significantly higher | lack of balance | 12 | Significant weight loss | muscle weakness in female mice (C57BL/6 mice [1]; female mice, fall from inverted cage and ring): most pronounced muscle weakness; grade of plaque formation (C57BL/6 mice [2]; female mice): 9 (24-27); induction of MS in females (C57BL/6 mice [2]; females): major inducer of MS in females
3 | RDSANIYHADSLKGRFT (Oligopeptide motif) [antigen A] | significantly higher | lack of balance | 12 | Significant weight loss | severity of muscle weakness compared between antigens (C57BL/6 mice [1]; [5]): less than those injected with oligopeptide antigen P; also recorded: considerably less effect than oligopeptide antigens E and F
4 | RLTLSPEQAHSLILQHL [antigen S, RLTLSPEQAHSLILQHL] | – | – | – | – | differences between healthy female patients (HF) and female patients with MS (FMS) in the levels of antibody that bind to the oligopeptide [3]: significant for each exemplary oligopeptide besides H and S
5 | Glatiramer acetate [Copaxone] | – | – | – | – | fewer relapses than patients taking placebo [4]: about 30%
6 | MPRTQENAHSLERCWL [antigen H, MPRTQENAHSLERCWL] | – | – | – | – | differences between healthy female patients (HF) and female patients with MS (FMS) in the levels of antibody that bind to the oligopeptide [3]: significant for each exemplary oligopeptide besides H and S
7 | RGSRGQHQAHSLERVCH (Oligopeptide motif) [antigen P] | – | lack of balance | 12 | Significant weight loss | severity of muscle weakness compared between antigens (C57BL/6 mice [1]; [5]): considerably less effect than oligopeptide antigens E and F
